The test system of experiment [1] is t-PA-induced fibrinolysis in plasma. In words: Plasma fibrinolysis assay (turbidometric). The settings on record: human plasma, t-PA 50 U/mL; read-out: IC50 on t-PA-induced fibrinolysis in plasma (median [25%; 75% percentile]). The experiment is classed as biochemical. Here is the method:
(§1) Venous blood was withdrawn from the antecubital vein from healthy volunteers after written informed consent in accordance with local and federal guidelines with approval of the local review board (Ethikkommission, Klinikum Charité, Sauerbruchweg 5, 10117 Berlin). The blood was mixed with 0.11 mol/L sodium citrate (1:10). For ROTEM® analysis, whole citrated blood was used within 8 h after collection. Platelet-rich plasma (PRP) was prepared from citrated blood by centrifugation at 330×g for 10 min at room temperature, platelet-poor plasma (PPP) was collected following centrifugation at 1220×g for 12 min. The PRP was then adjusted to 3×10^8 platelets per mL using the autologous PPP. PRP was maintained at room temperature for less than 4 h before analysis. The remaining PPP was subjected to a high-speed centrifugation at 40,000×g for 30 min at 4° C. to remove any particulate material and was then stored at −70° C. until use.
(§2) The antifibrinolytic activity of Compound No. 3 in comparison to aprotinin and tranexamic acid was investigated in plasma and whole blood assays. In both assays, tissue factor was added to initiate rapid clot formation via the extrinsic pathway which produces a clot that remains stable for several hours under normal conditions. Supplementation of plasma or whole blood with tissue-type plasminogen activator (t-PA) before stimulation results in activation of endogenous plasminogen and thus fibrinolysis while the initial clot formation is not impaired. […] A final concentration of 50 U/mL and 100 U/mL in plasma and whole blood, respectively, was chosen to achieve complete lysis within about 60 min. In the presence of antifibrinolytics, clot lysis is delayed in a concentration-dependent manner.
Inhibition of fibrinolysis in plasma was examined using a turbidometric method in 96-well flat-bottom plates. The time course of clot formation and lysis, reflected by an initial increase and subsequent decrease in turbidity, was recorded by continuously measuring the optical density (OD) at 405 nm. Similar models have been used widely to study the clot lysis process in human plasma (Kim et al., J. Thromb. Haemost. 5: 1250-6, 2007) as well as its inhibition by antifibrinolytic drugs (Sperzel et al., J. Thromb. Haemost. 5: 2113-8, 2007). Frozen and thawed human plasma (PPP) was pre-incubated with test compound or vehicle (Owren's Veronal buffer) for 5 min at 37° C. […] OD at 405 nm was monitored every 45 s for 180 min at 37° C. with a microplate reader (POLARstar OPTIMA, BMG Labtech, Offenburg, Germany). Fibrinolysis was quantified as the relative decrease in OD at 45 min after the maximum OD was reached. […]

Experiment [2] relates to t-PA-induced lysis of whole blood clots. In words: Whole blood fibrinolysis assay (ROTEM, EXTEM with t-PA). The experiment is classed as cell-based, human. The settings on record: human whole blood, t-PA 100 U/mL, Ly60; read-out: concentration resulting in 50% suppression of clot lysis (IC50, median [25%; 75% percentile]). The procedure:
as §1, §2
Fibrinolysis in whole blood was studied with rotational thromboelastometry (Luddington, Clin. Lab. Haematol. 27: 81-90, 2005) using a computerized, multi-channel ROTEM® instrument (Pentapharm, Munich, Germany) (Ganter et al., Anesth. Analg. 106: 1366-75, 2008). Activation of test samples accelerated the measurement process and enhanced reproducibility compared with conventional thromboelastography. To allow observation of fibrinolysis, ROTEM® analysis with tissue factor activation (EXTEM) was modified through addition of t-PA (Nielsen et al. Blood Coagul. Fibrinolysis 17: 75-81, 2006). Citrated blood was pre-incubated at 37° C. for 5 min with test compound or saline before tissue factor, CaCl2 and t-PA (100 U/mL final concentration) were added to start the reaction. Fibrinolysis was determined by measuring loss of clot strength with time and was recorded as Ly60 (percentage reduction of the maximum amplitude at 60 min after the onset of clotting). In control samples without inhibitor, clots were lysed completely within 60 min, such that Ly60 was above 90%. By plotting Ly60 versus test compound concentration, IC50 values for each compound were calculated.

With `NC[C@H]1CC[C@H](C(=O)O)CC1` [tranexamic acid, trans-4-(aminomethyl)cyclo-hexanecarboxylic acid], the IC50 in experiment [1] was 4.22 µM; in experiment [2], 2.75 µM.

The record behind these values is patent publication US8410310B2, “Trypsin-like serine protease inhibitors, and their preparation and use” (The Medicines Company (Leipzig) GmbH, priority 2006, dated 2013).
